From patent US20100197495A1, “Synergistic Mixtures and/or Compositions With a High Fungicidal Activity” (priority 2005, published 2010)

Test system: Plasmopara viticola
Assay: 7-day preventive activity on Plasmopara viticola on vines, preventive leaf application (greenhouse test)
Type: in vivo
Parameters: key to Activity (y): scale 100 = healthy plant to 0 = completely infected plant
Description: Efficacy of the mixtures of one or more compounds belonging to the FOS and SIN groups of compounds in the control of Plasmopara viticola on vines in preventive leaf application (greenhouse test) (Table 1-Table 3) and of the compositions of said mixtures with a further fungicidal component (Table 4).
Leaves of cultivar Merlot vines, grown in vases, in a conditioned environment (20±1° C., 70% relative humidity) are treated by spraying both sides of the leaves with the mixtures under examination dispersed in an aqueous solution containing a 0.3% of tween 20.
After remaining 7 days in a conditioned environment, the plants are infected on the lower side with an aqueous suspension of spores of Plasmopara viticola (200,000 spores per cm^3).
The plants are kept in a humidity saturated environment, at 21° C., for the incubation period of the fungus and, at the end of this period (7 days), the fungicidal activity is evaluated according to an evaluation percentage scale from 100 (healthy plant) to 0 (completely infected plant).
When the fungicidal activity found experimentally is greater than the value of E, this activity is considered a synergistic effect.

[1] = Table 4, alone, 32 ppm of equivalent metal copper
[2] = Table 4, alone, 125 ppm of equivalent phosphorous acid
[3] = compound alone, 250 ppm of equivalent phosphorous acid, scale 100 (healthy plant) to 0 (completely infected plant)

CC(=O)Oc1ccccc1C(=O)[O-].CC(=O)Oc1ccccc1C(=O)[O-].[Cu+2] [Cu(ASA)2]
% activity of each single compound [1]: Cu(ASA)2: 32 ppm*** (45) %

[Cu+2].c1ccc2c(c1)-c1nc-2nc2[n-]c(nc3nc(nc4[n-]c(n1)c1ccccc41)-c1ccccc1-3)c1ccccc21 [Cu(II) phthalocyanine, copper phthalocyanine]
Activity (y) (SIN compound alone, 32 ppm of equivalent metal): 10
% activity of each single compound [1]: (8) %

O=C(O)c1ccccc1[O-].O=C(O)c1ccccc1[O-].[Cu+2] [Cu(SA)]
% activity of each single compound [1]: Cu(SA): 32 ppm*** (42) %

O=[PH]([O-])[O-].[Cu+2] [CuHPO3, copper (II) salt of phosphorous acid]
% activity of each single compound (Table 3, alone, 250 ppm of equivalent phosphorous acid): CuHPO3: 250 ppm** (55) %
% activity of each single compound [2]: CuHPO3: 125 ppm** (32) %
Activity (y) [3]: 55

O=c1ccc2cc(O[C@@H]3O[C@H](CO)[C@@H](O)[C@H](O)[C@H]3O)c(O)cc2o1 [Esculin, esculin]
Activity (y) (SIN compound alone, 25 ppm): 10

COC(=O)CC(NC(=O)[C@@H](NC(=O)OC(C)C)C(C)C)c1ccc(Cl)cc1 (stereo partly drawn) [IR5885, methyl [S—(R,S)]-[3-(N-isopropoxycarbonylvalinyl)-amino]-3-(4-chlorophenyl)propanoate]
% activity of each single compound (Table 4, alone, 0.45 ppm): IR5885: 0.45 ppm (41) %

COC(=O)[C@@H](C)N(C(=O)Cc1ccccc1)c1c(C)cccc1C [IR6141, methyl N-(phenylacetyl)-N-2,6-xylyl-R-alaninate]
inhibition at 5 ppm (Plasmopara viticola, Table 4, alone, 5 ppm, read-out: % activity of each single compound): 45%

[C-]#N.[C-]#N.[C-]#N.[C-]#N.[C-]#N.[C-]#N.[C-]#N.[C-]#N.[C-]#N.[C-]#N.[C-]#N.[C-]#N.[C-]#N.[C-]#N.[C-]#N.[C-]#N.[C-]#N.[C-]#N.[Fe+2].[Fe+2].[Fe+2].[Fe+3].[Fe+3].[Fe+3].[Fe+3] [Prussian blue]
Activity (y) (SIN compound alone, 250 ppm): 32
% activity of each single compound (Table 3, alone, 125 ppm): Prussian blue: 125 ppm (5) %
% activity of each single compound (Table 4, alone, 125 ppm): Prussian blue: 125 ppm (5) %

O=[PH]([O-])[O-].[Zn+2] [ZnHPO3, zinc salt of phosphorous acid]
% activity of each single compound [2]: ZnHPO3: 125 ppm** (18) %
Activity (y) [3]: 35

[O]=[Zn] [ZnO, zinc oxide]
Activity (y) (SIN compound alone, 250 ppm): 30
% activity of each single compound (Table 3, alone, 125 ppm): ZnO: 125 ppm (14) %
% activity of each single compound (Table 4, alone, 125 ppm): ZnO: 125 ppm (14) %

silicic acid
Activity (y) (SIN compound alone, 14 ppm of equivalent metal): 14

titanium dioxide [TiO2]
Activity (y) (SIN compound alone, 250 ppm): 13
% activity of each single compound (Table 3, alone, 125 ppm): TiO2: 125 ppm (3) %
% activity of each single compound (Table 4, alone, 125 ppm): TiO2: 125 ppm (3) %
